# Measured values taken from patent publication KR20210021686A, “비천연 아미노산-결합 단백질, 및 이를 코딩하는 유전자가 도입된 형질전환체” (priority 2019, dated 2021).
# Target: T1, Escherichia coli leucine-binding protein (류신-결합 단백질, LBP), wild type (WT), SEQ ID NO: 46, YFP-LBP fusion sensor (Escherichia coli, UniProt P04816)
# T1 construct: made in house; host or cells: E. coli C321.ΔA (co-transformed with pEvol-CouA-RS)
# Assay: FRET titration, dissociation constant (Table 1), WT LBP
# Conditions: 50 mM NaH2PO4, 50 mM NaCl, pH 9.0
# T1 sequence (P04816 24-369): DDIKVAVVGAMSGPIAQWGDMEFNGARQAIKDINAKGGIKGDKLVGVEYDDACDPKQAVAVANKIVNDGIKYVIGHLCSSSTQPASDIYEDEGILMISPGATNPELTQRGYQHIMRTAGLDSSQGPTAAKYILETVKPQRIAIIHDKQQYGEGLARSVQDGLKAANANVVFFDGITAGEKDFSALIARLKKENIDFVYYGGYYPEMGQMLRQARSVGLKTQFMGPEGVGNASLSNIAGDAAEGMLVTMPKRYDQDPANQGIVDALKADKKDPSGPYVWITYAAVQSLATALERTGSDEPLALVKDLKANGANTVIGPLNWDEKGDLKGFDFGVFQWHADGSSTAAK
smiles,measurement,value
"CC(C)C[C@H](N)C(=O)O [L-Leu, L-류신]",Kd,410 nM
